Measured values published in patent publication US20230146455A1, “TREATMENT OF INFLAMMATORY DISEASES WITH PEPTIDES AND PHARMACEUTICAL COMPOSITIONS” (Yuyu Pharma, Inc., priority 2020, published 2023).
Where “and” joins values, the source holds several entries; their conditions need not be identical. Identical values can stand only once. Where a SMILES comes first, the peptide text is derived from it. [ ]: non-standard residue; d: D form. Hyp = O=C(O)[C@@H]1C[C@@H](O)CN1

Test system: human PBMCs
Assay: PBMC cell counts (total, live, viability; trypan blue, Countess) with and without LPS and test articles (Example 9)
Assay type: cell-based
Method: Treatment Human PBMCs were pretreated with YY-101, YDE-011 and YDE-043 or reference compound; Xiidra® at various concentration (ranging from 1 nM to 100 uM) for 2 h before stimulation. An equal volume of 0.5% DMSO was used as a vehicle control. Then, the cells were treated with LPS at 5 ug/ml. The supernatants from treated cells were harvested at 24 h and placed in a 96 well for Luminex cytokine & chemokine profiling using a Luminex 200 multiplex assay (Luminex; R&D system, USA).
The main study arm with triplicate wells per group in a 24-well plate: • 1. Blank • 2. PBMC: 0.5% DMSO • 3. PBMC+LPS (5 ug/ml) • 4. PBMC+YY-101 100 uM • 5. PBMC+YY-101 10 uM • 6. PBMC+YY-101 1 uM • 7. PBMC+YY-101 0.1 uM • 8. PBMC+YY-101 0.01 uM • 9. PBMC+LPS (5 ug/ml)+Xiidra®100 uM • 10. PBMC+LPS (5 ug/ml)+Xiidra® 10 uM • 11. PBMC+LPS (5 ug/ml)+Xiidra® 1 uM • 12. PBMC+LPS (5 ug/ml)+Xiidra®0.1 uM • 13. PBMC+LPS (5 ug/ml)+Xiidra®0.01 uM • 14. PBMC+LPS (5 ug/ml)+Xiidra®0.001 uM • 15. PBMC+LPS (5 ug/ml)+YY-101 100 uM • 16. PBMC+LPS (5 ug/ml)+YY-101 10 uM • 17. PBMC+LPS (5 ug/ml)+YY-101 1 uM • 18. PBMC+LPS (5 ug/ml)+YY-101 0.1 uM • 19. PBMC+LPS (5 ug/ml)+YY-101 0.01 uM • 20. PBMC+LPS (5 ug/ml)+YY-101 0.001 uM • 21. PBMC+LPS (5 ug/ml)+YDE-011 100 uM • 22. PBMC+LPS (5 ug/ml)+YDE-011 10 uM • 23. PBMC+LPS (5 ug/ml)+YDE-011 1 uM • 24. PBMC+LPS (5 ug/ml)+YDE-011 0.1 uM • 25. PBMC+LPS (5 ug/ml)+YDE-011 0.01 uM • 26. PBMC+LPS (5 ug/ml)+YDE-011 0.001 uM • 27. PBMC+LPS (5 ug/ml)+YDE-043 100 uM • 28. PBMC+LPS (5 ug/ml)+YDE-043 10 uM • 29. PBMC+LPS (5 ug/ml)+YDE-043 1 uM • 30. PBMC+LPS (5 ug/ml)+YDE-043 0.1 uM • 31. PBMC+LPS (5 ug/ml)+YDE-043 0.01 uM • 32. PBMC+LPS (5 ug/ml)+YDE-043 0.001 uM
The number of PBMCs was measured after 24 hr of treatment. The culture both and trypan blue were diluted 1:1 and 10 ul was added to Countess cell counting chamber (Thermo fisher, USA). The number of PBMCs was measured using a Countess automated cell counter (Thermo fisher, USA).

[1] = PBMC + LPS(5 ug/ml) + test article 100 uM, Mean
[2] = PBMC + LPS(5 ug/ml) + test article 100 uM, single replicates
[3] = PBMC + LPS(5 ug/ml), test article 0.001 uM, Mean
[4] = PBMC + LPS(5 ug/ml), test article 0.001 uM, single replicates
[5] = PBMC + LPS(5 ug/ml), test article 0.01 uM, Mean
[6] = PBMC + LPS(5 ug/ml), test article 0.01 uM, single replicates
[7] = PBMC + LPS(5 ug/ml), test article 0.1 uM, Mean
[8] = PBMC + LPS(5 ug/ml), test article 0.1 uM, single replicates
[9] = PBMC + LPS(5 ug/ml), test article 1 uM, Mean
[10] = PBMC + LPS(5 ug/ml), test article 1 uM, single replicates
[11] = PBMC + LPS(5 ug/ml), test article 10 uM, Mean
[12] = PBMC + LPS(5 ug/ml), test article 10 uM, single replicates
[13] = PBMC + LPS(5 ug/ml), test article 100 uM, Mean
[14] = PBMC + LPS(5 ug/ml), test article 100 uM, single replicates

CC(C)C[C@H](NC(=O)CNC(=O)[C@H](CC(C)C)NC(=O)[C@H](CCC(N)=O)NC(=O)CNC(=O)[C@@H]1C[C@@H](O)CN1)C(=O)N[C@@H](C)C(=O)NCC(=O)N1CCC[C@H]1C(=O)N[C@@H](CCCCN)C(=O)O [YDE-011] (H-[Hyp]GQLGLAGPK-OH)
Live cell (PBMC + LPS(5 ug/ml) + test article 10 uM, single replicates (1st, 2nd, 3rd)): 5.4 10^5/ml and 5.8 10^5/ml and 4.7 10^5/ml
Live cell [1]: 6.1 10^5/ml
Live cell (10^5/ml) [1]: 6.1 10^5/ml
Live cell, Mean [1]: 6.1 10^5/ml
Live cell (PBMC + LPS(5 ug/ml) + test article 100 uM, individual replicates): 6.1 10^5/ml (2×) and 6.0 10^5/ml
Live cell (PBMC + LPS(5 ug/ml) + test article 100 uM, individual replicates (1st, 2nd, 3rd)): 6.1 10^5/ml (2×) and 6.0 10^5/ml
Live cell [2]: 6.1 10^5/ml (2×) and 6.0 10^5/ml
Live cell (10^5/ml) [2]: 6.1 10^5/ml (2×) and 6.0 10^5/ml
Live cell (PBMC + LPS(5 ug/ml) + test article 100 uM, single replicates (1st, 2nd, 3rd)): 6.1 10^5/ml (2×) and 6.0 10^5/ml
Live cell (PBMC + LPS(5 ug/ml), 0.001 uM, Mean): 5.4 10^5/ml
Live cell (PBMC + LPS(5 ug/ml), 0.001 uM, single replicates): 4.5 10^5/ml and 5.8 10^5/ml (2×)
Live cell (PBMC + LPS(5 ug/ml), 0.01 uM, Mean): 5.9 10^5/ml
Live cell (PBMC + LPS(5 ug/ml), 0.01 uM, single replicates): 6.2 10^5/ml and 5.1 10^5/ml and 6.3 10^5/ml
Live cell (PBMC + LPS(5 ug/ml), 0.1 uM, Mean): 5.8 10^5/ml
Live cell (PBMC + LPS(5 ug/ml), 0.1 uM, single replicates): 6.6 10^5/ml and 5.0 10^5/ml and 5.7 10^5/ml
Live cell (PBMC + LPS(5 ug/ml), 1 uM, Mean): 5.0 10^5/ml
Live cell (PBMC + LPS(5 ug/ml), 1 uM, single replicates): 5.5 10^5/ml and 4.8 10^5/ml (2×)
Live cell (PBMC + LPS(5 ug/ml), 10 uM, Mean): 5.3 10^5/ml
Live cell (PBMC + LPS(5 ug/ml), 10 uM, single replicates): 5.4 10^5/ml and 5.8 10^5/ml and 4.7 10^5/ml
Live cell (PBMC + LPS(5 ug/ml), 100 uM, Mean): 6.1 10^5/ml
Live cell (PBMC + LPS(5 ug/ml), 100 uM, single replicates): 6.1 10^5/ml (2×) and 6.0 10^5/ml
Live cell [3]: 5.4 10^5/ml
Total cell count [3]: 6.3 10^5/ml
Live cell [4]: 4.5 10^5/ml and 5.8 10^5/ml (2×)
Total cell count [4]: 5.9 10^5/ml and 6.3 10^5/ml and 6.6 10^5/ml
Viability [4]: 75.0% and 92.0% and 88.0%
Live cell [5]: 5.9 10^5/ml
Total cell count [5]: 7.3 10^5/ml
Live cell [6]: 6.3 10^5/ml and 6.2 10^5/ml and 5.1 10^5/ml
Total cell count [6]: 7.6 10^5/ml and 7.8 10^5/ml and 6.4 10^5/ml
Viability [6]: 79.0%
Live cell [7]: 5.8 10^5/ml
Total cell count [7]: 7.1 10^5/ml
Live cell [8]: 6.6 10^5/ml and 5.0 10^5/ml and 5.7 10^5/ml
Total cell count [8]: 7.8 10^5/ml and 5.7 10^5/ml and 7.7 10^5/ml
Viability [8]: 85.0% and 87.0% and 74.0%
Live cell [9]: 5.0 10^5/ml
Total cell count [9]: 6.4 10^5/ml
Live cell [10]: 5.5 10^5/ml and 4.8 10^5/ml
Total cell count [10]: 6.2 10^5/ml and 7.0 10^5/ml and 5.9 10^5/ml
Viability [10]: 89.0% and 69.0% and 81.0%
Live cell [11]: 5.3 10^5/ml
Total cell count [11]: 6.0 10^5/ml
Live cell [12]: 5.4 10^5/ml and 5.8 10^5/ml and 4.7 10^5/ml
Total cell count [12]: 5.9 10^5/ml and 6.7 10^5/ml and 5.4 10^5/ml
Viability [12]: 91.0% and 86.0% and 88.0%
Live cell [13]: 6.1 10^5/ml
Total cell count [13]: 8.2 10^5/ml
Live cell [14]: 6.1 10^5/ml (2×) and 6.0 10^5/ml
Total cell count [14]: 7.6 10^5/ml and 8.1 10^5/ml and 9.0 10^5/ml
Viability [14]: 81.0% and 75.0% and 67.0%
which treatments consistently affected the total and live number of PBMCs or the percent viability (in words) (up to 100 μM, 24-hour treatment): none of
